Here are results for 24 compounds from patent US12780800B1, “Triazole-pyridinyl substituted azacyclohexyl acetic acid compounds as LPA receptor antagonists” (Viva Star Biosciences Limited, priority 2021, dated 2022).

pIC50: −log10 of the molar value.

The target of the assay is T1, LPA1 (Homo sapiens, UniProt Q92633).
T1 construct: ProLink (PK) beta-galactosidase enzyme-fragment tag; host or cells: CHO-K1
T1 sequence (Q92633 whole entry, the tested form may be a part): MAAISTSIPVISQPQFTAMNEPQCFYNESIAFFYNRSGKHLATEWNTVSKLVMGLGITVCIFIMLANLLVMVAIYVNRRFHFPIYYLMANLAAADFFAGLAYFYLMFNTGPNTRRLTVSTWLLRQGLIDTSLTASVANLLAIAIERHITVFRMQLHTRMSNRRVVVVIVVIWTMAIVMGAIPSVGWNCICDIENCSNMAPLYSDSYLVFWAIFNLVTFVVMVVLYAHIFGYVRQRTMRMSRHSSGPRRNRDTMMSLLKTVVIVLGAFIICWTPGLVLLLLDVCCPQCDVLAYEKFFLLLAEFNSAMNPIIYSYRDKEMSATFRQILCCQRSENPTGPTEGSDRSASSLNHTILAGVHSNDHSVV
Briefly: LPA1 calcium flux assay (LPA1 functional antagonist assay). Type of assay: cell-based. The conditions noted are these: PathHunter CHO-K1 EDG2 β-Arrestin cell line; calcium indicator dye; stimulated with EC80 concentration of LPA; FLIPR Tetra. How it is done:
Following overnight culture, cells were loaded with calcium indicator dye from the HitHunter Calcium No WashPLUS Assay kit (Eurofins DiscoverX Corporation, Cat #93-0091) for 45 minutes at 37° C. […] After compound addition, assay plates were equilibrated to room temperature for 30 minutes. […] IC50 values were determined by Chemical and Biological Information System from ChemInnovation Software, Inc. The compounds of this invention were tested for their activity to inhibit LPA1 as determined in an LPA1 functional antagonist assay as described herein.
As to `CCCc1cccnc1OCc1c(-c2ccc(N3CCC(CC(=O)O)C(F)(F)C3)c(C)n2)nnn1C` (stereo not drawn) [Example 113, 2-(3,3-difluoro-1-(2-methyl-6-(1-methyl-5-(((3-propylpyridin-2-yl)oxy)methyl)-1H-1,2,3-triazol-4-yl)pyridin-3-yl)piperidin-4-yl)acetic acid], the negative-log IC50 (pIC50) is 5.30 to 6.30. Next, `CCc1nc(-c2nnn(C)c2CN2C[C@H](CC3CC3)OC2=O)ccc1N1C[C@H](CC(=O)O)CC(F)(F)C1` (stereo in doubt) [Example 69, 2-((R)-1-(6-(5-(((S)-5-(cyclopropylmethyl)-2-oxooxazolidin-3-yl)methyl)-1-methyl-1H-1,2,3-triazol-4-yl)-2-ethylpyridin-3-yl)-5,5-difluoropiperidin-3-yl)acetic acid]: 5.30 to 6.30. Next, `CCc1nc(-c2nnn(C)c2Cn2ncc(CC3CC3)n2)ccc1N1C[C@@H](CC(=O)O)CC(F)(F)C1` [Example 130, (S)-2-(1-(6-(5-((4-(cyclopropylmethyl)-2H-1,2,3-triazol-2-yl)methyl)-1-methyl-1H-1,2,3-triazol-4-yl)-2-ethylpyridin-3-yl)-5,5-difluoropiperidin-3-yl)acetic acid]: over 7.00; `CCc1nc(-c2nnn(C)c2COc2cn(CC3CC3)nn2)ccc1N1C[C@@H](CC(=O)O)CC(F)(F)C1` [Example 126, (S)-2-(1-(6-(5-(((1-(cyclopropylmethyl)-1H-1,2,3-triazol-4-yl)oxy)methyl)-1-methyl-1H-1,2,3-triazol-4-yl)-2-ethylpyridin-3-yl)-5,5-difluoropiperidin-3-yl)acetic acid]: 6.30 to 7.00. To `CCCN(C)C(=O)OCc1c(-c2ccc(N3CCOC(CC(=O)O)C3)c(CC)n2)nnn1C` (stereo not drawn) [Example 170, 2-(4-(2-ethyl-6-(1-methyl-5-(((methyl(propyl)carbamoyl)oxy)methyl)-1H-1,2,3-triazol-4-yl)pyridin-3-yl)morpholin-2-yl)acetic acid] belongs 5.30 to 6.30. Take `CCc1nc(-c2cnn(C)c2COc2cc(-n3cccn3)ncn2)ccc1N1CCC[C@H](CC(=O)O)C1` [Example 90, (R)-2-(1-(6-(5-(((6-(1H-pyrazol-1-yl)pyrimidin-4-yl)oxy)methyl)-1-methyl-1H-pyrazol-4-yl)-2-ethylpyridin-3-yl)piperidin-3-yl)acetic acid]: the pIC50 is over 7.00. To `CCc1nc(-c2nnn(C)c2Cn2nncc2CC2CC2)ccc1N1C[C@@H](CC(=O)O)CC(F)(F)C1` [Example 132, (S)-2-(1-(6-(5-((5-(cyclopropylmethyl)-1H-1,2,3-triazol-1-yl)methyl)-1-methyl-1H-1,2,3-triazol-4-yl)-2-ethylpyridin-3-yl)-5,5-difluoropiperidin-3-yl)acetic acid] belongs over 7.00; to `CCc1nc(-c2nnn(C)c2Cn2nc(CC3CC3)ccc2=O)ccc1N1C[C@@H](CC(=O)O)CC(F)(F)C1` [Example 35, (S)-2-(1-(6-(5-((3-(cyclopropyImethyl)-6-oxopyridazin-1(6H)-yl)methyl)-1-methyl-1H-1,2,3-triazol-4-yl)-2-ethylpyridin-3-yl)-5,5-difluoropiperidin-3-yl)acetic acid], 6.30 to 7.00; to `CCc1nc(-c2nnn(C)c2Cn2nc(CC3CC3)n(C)c2=O)ccc1N1C[C@@H](CC(=O)O)CC(F)(F)C1` [Example 68, (S)-2-(1-(6-(5-((3-(cyclopropylmethyl)-4-methyl-5-oxo-4,5-dihydro-1H-1,2,4-triazol-1-yl)methyl)-1-methyl-1H-1,2,3-triazol-4-yl)-2-ethylpyridin-3-yl)-5,5-difluoropiperidin-3-yl)acetic acid], 5.30 to 6.30.

On to `Cc1nc(-c2nnn(C)c2CN2C[C@H](CC3CC3)N(C)C2=O)ccc1N1C[C@H](CC(=O)O)CC(F)(F)C1` [Example 64, 2-((R)-1-(6-(5-(((S)-4-(cyclopropylmethyl)-3-methyl-2-oxoimidazolidin-1-yl)methyl)-1-methyl-1H-1,2,3-triazol-4-yl)-2-methylpyridin-3-yl)-5,5-difluoropiperidin-3-yl)acetic acid], for which the pIC50 was 5.30 to 6.30.

For the compound `CCc1nc(-c2nnn(C)c2COc2nccc(C3CCC3)n2)ccc1N1CCOC(CC(=O)O)C1` (stereo not drawn) [Example 171, 2-(4-(6-(5-(((4-cyclobutylpyrimidin-2-yl)oxy)methyl)-1-methyl-1H-1,2,3-triazol-4-yl)-2-ethylpyridin-3-yl)morpholin-2-yl)acetic acid], the pIC50 was over 7.00. Take `CCCc1ccc(=O)n(Cc2c(-c3ccc(N4CCCC(CC(=O)O)C4=O)c(CC)n3)nnn2C)c1` (single isomer, unassigned) [Example 52, (R) or (S)-2-(1-(2-ethyl-6-(1-methyl-5-((2-oxo-5-propylpyridin-1(2H)-yl)methyl)-1H-1,2,3-triazol-4-yl)pyridin-3-yl)-2-oxopiperidin-3-yl)acetic acid]: the pIC50 is 5.30 to 6.30. Regarding `CCc1nc(-c2nnn(C)c2Cn2cc(CC(C)C)n(C)c2=O)ccc1N1C[C@H](CC(=O)O)CC(F)(F)C1` (stereo in doubt) [Example 66, 2-[(3R)-1-[2-ethyl-6-(1-methyl-5-{[3-methyl-4-(2-methylpropyl)-2-oxo-2,3-dihydro-1H-imidazol-1-yl]methyl}-1H-1,2,3-triazol-4-yl)pyridin-3-yl]-5,5-difluoropiperidin-3-yl]acetic acid], the negative logarithm of the IC50 (pIC50) is over 7.00. Consider `CCc1nc(-c2nnn(C)c2COc2nccc(C3CCC3)n2)ccc1N1CCCC(CC(=O)O)C1=O` (single isomer, unassigned) [Example 93, (R) or (S)-2-(1-(6-(5-(((4-cyclobutylpyrimidin-2-yl)oxy)methyl)-1-methyl-1H-1,2,3-triazol-4-yl)-2-ethylpyridin-3-yl)-2-oxopiperidin-3-yl)acetic acid], for which the negative logarithm of the IC50 (pIC50) was 6.30 to 7.00.

Regarding `Cn1nnc(-c2ccc(N3CCC[C@H](CC(=O)O)C3)c(C(F)(F)F)n2)c1Cn1cc(C2CC2)ccc1=O` [Example 59, (R)-2-(1-(6-(5-((5-cyclopropyl-2-oxopyridin-1(2H)-yl)methyl)-1-methyl-1H-1,2,3-triazol-4-yl)-2-(trifluoromethyl)pyridin-3-yl)piperidin-3-yl)acetic acid], the pIC50 is over 7.00. To `CCCc1ccc(=O)n(Cc2c(-c3cnc(N4C[C@H](CC(=O)O)CC(F)(F)C4)cn3)nnn2C)c1` (stereo in doubt) [Example 56, (R)-2-(5,5-difluoro-1-(5-(1-methyl-5-((2-oxo-5-propylpyridin-1(2H)-yl)methyl)-1H-1,2,3-triazol-4-yl)pyrazin-2-yl)piperidin-3-yl)acetic acid] belongs under 5.30. As to `Cc1nc(-c2nnn(C)c2COc2nccc(C3CCC3)n2)ccc1CN1CC(C(=O)O)CC(F)(F)C1` (single isomer, unassigned) [Example 148, (R) or (S)-1-((6-(5-(((4-cyclobutylpyrimidin-2-yl)oxy)methyl)-1-methyl-1H-1,2,3-triazol-4-yl)-2-methylpyridin-3-yl)methyl)-5,5-difluoropiperidine-3-carboxylic acid], the pIC50 was over 7.00. For the compound `CCc1nc(-c2nnn(C)c2COc2cc(-n3nccn3)ncn2)ccc1N1CCC[C@H](CC(=O)O)C1` [Example 98, (R)-2-(1-(6-(5-(((6-(2H-1,2,3-triazol-2-yl)pyrimidin-4-yl)oxy)methyl)-1-methyl-1H-1,2,3-triazol-4-yl)-2-ethylpyridin-3-yl)piperidin-3-yl)acetic acid], the negative logarithm of the IC50 (pIC50) is 6.30 to 7.00.

For `Cc1nc(-c2nnn(C)c2COc2cc(-n3ccnn3)ncn2)ccc1N1C[C@@H](CC(=O)O)CC(F)(F)C1` [Example 99, (S)-2-(1-(6-(5-(((6-(1H-1,2,3-triazol-1-yl)pyrimidin-4-yl)oxy)methyl)-1-methyl-1H-1,2,3-triazol-4-yl)-2-methylpyridin-3-yl)-5,5-difluoropiperidin-3-yl)acetic acid], the negative-log IC50 (pIC50) was over 7.00. To `CCCOc1ccc(=O)n(Cc2c(-c3ccc(N4C[C@@H](CC(=O)O)CC(F)(F)C4)c(CC)n3)nnn2C)c1` [Example 25, (S)-2-(1-(2-ethyl-6-(1-methyl-5-((2-oxo-5-propoxypyridin-1 (2H)-yl)methyl)-1H-1,2,3-triazol-4-yl)pyridin-3-yl)-5,5-difluoropiperidin-3-yl)acetic acid] belongs 6.30 to 7.00.

As for `CCc1nc(-c2nnn(C)c2COc2nccc(C3CCC3)n2)ccc1N1C[C@@H](CC(=O)O)CC(F)(F)C1` [Example 79, (S)-2-(1-(6-(5-(((4-cyclobutylpyrimidin-2-yl)oxy)methyl)-1-methyl-1H-1,2,3-triazol-4-yl)-2-ethylpyridin-3-yl)-5,5-difluoropiperidin-3-yl)acetic acid], the negative logarithm of the IC50 (pIC50) was over 7.00. Consider `CCc1nc(-c2nnn(C)c2CNc2noc(C3CCC3)n2)ccc1N1C[C@@H](CC(=O)O)CC(F)(F)C1` [Example 120, (S)-2-(1-(6-(5-(((5-cyclobutyl-1,2,4-oxadiazol-3-yl)amino)methyl)-1-methyl-1H-1,2,3-triazol-4-yl)-2-ethylpyridin-3-yl)-5,5-difluoropiperidin-3-yl)acetic acid], for which the negative logarithm of the IC50 (pIC50) was 5.30 to 6.30. To `CCCc1ccc(=O)n(Cc2c(-c3ccc(N4CCC[C@H](CC(=O)O)C4)c(CC)n3)nnn2C)c1` [Example 22, (R)-2-(1-(2-ethyl-6-(1-methyl-5-((2-oxo-5-propylpyridin-1(2H)-yl)methyl)-1H-1,2,3-triazol-4-yl)pyridin-3-yl)piperidin-3-yl)acetic acid] belongs 6.30 to 7.00; to `CCc1nc(-c2nnn(C)c2COc2cnn(CC(C)C)n2)ccc1N1C[C@@H](CC(=O)O)CC(F)(F)C1` [Example 129, (S)-2-(1-(2-ethyl-6-(5-(((2-isobutyl-2H-1,2,3-triazol-4-yl)oxy)methyl)-1-methyl-1H-1,2,3-triazol-4-yl)pyridin-3-yl)-5,5-difluoropiperidin-3-yl)acetic acid], over 7.00.
